One assay deals with BT20. The assay can be described thus: AlamarBlue cell viability assay, BT20. Type of assay: cell-based. Particulars: Homo sapiens, BT-20, Mammary. An excerpt:
(§1) (A) Inhibitory concentration 50% (IC50) values for compound 43 in the MC cell lines are tabulated, using an AlamarBlue™ cell viability assay as previously described in Pandey V et al., Breast Cancer Res. 2014; 16(5):429. (B) Measured dose-dependent manner effect of compound 43 on the viability of MC cells (left-side, TFF3-high and right, TFF3-low) using AlamarBlue™ viability assay as previously described (ibid). (C) Apoptotic cell death of mammary carcinoma cell lines measured after treatment with 10 μM compound 43 using flow cytometry analysis at 24 hour as described previously in Keerthy H K et al., PloS one. 2014; 9(9):e107118. Annexin V-FITC staining is indicated on the X-axis and PI staining on the Y-axis. […] Acquisition of Annexin V and PI data were represented as percentage (%) in each quadrant. Note: CM, conditioned media; MCF10A and MCF12A, non-transformed immortalized-mammary epithelial cell line. Points are mean of triplicate experiments; bars, ±SD. Statistical significance was assessed by using an unpaired two-tailed Student's t test (P<0.05 was considered as significant) using GraphPad Prism5. […]
(§2) In table 9 IC50 values of compound 43 compound library in several cancer cell lines are tabulated, using an AlamarBlue® cell viability assay as previously described in Pandey V et al., Breast Cancer Res. 2014; 16(5):429. Statistical analysis was assessed by using GraphPad Prism5. […]

For the next assay, the system named is MDA-MB-231. The assay can be described thus: AlamarBlue cell viability assay, MDA-MB-231. As to conditions: Homo sapiens, Mammary. Type of assay: cell-based.
Text: as §1, §2

In another assay the test system is MDA-MB-436. The assay can be described thus: AlamarBlue cell viability assay, MDA-MB-436. As to conditions: Homo sapiens, Mammary. Type of assay: cell-based.
Text: as §1, §2

A further assay relates to RL95-2. The assay can be described thus: AlamarBlue cell viability assay, RL95-2. As to conditions: Homo sapiens, Endometrial. The format is cell-based. As to the method:
(§3) The human immortalized mammary epithelial cell lines, MCF10A, and MCF12A; and immortalized hepatocellular epithelial cell line, LO2 were obtained from the American Type Culture Collection (ATCC, Rockville, Md.) and were cultured as per ATCC propagation instructions. MC cell lines, MCF7, T47D, BT474, BT20, MDA-MB-361, MDA-MB-436, MDA-MB-468, and MDA-MB-231; endometrial carcinoma cell lines, Ishikawa, ECC1, RL95-2 and AN3; hepatocellular carcinoma cell lines, Hep3B, H2P, and H2M; colon carcinoma cell lines, DLD-1, and Caco-2; and prostate carcinoma cell lines, PC3, LNCaP, and DU145 were obtained from the American Type Culture Collection (ATCC, Rockville, Md.). Pancreatic carcinoma cell lines, AsPC-1 and BxPC-3; Lung carcinoma cell lines, HCC-827, NCI-H1975, HCC-4006, PC-14, and NCI-H1299; and Thyroid carcinoma cell lines HTH83, CAL62, T238, and OGK-M were obtained from Prof. H. Phillip Koeffler's laboratory at The Cancer Science Institute of Singapore, National University of Singapore (NUS). Gastric carcinoma cell lines, AGS, MKN-28, MKN-45, and A2-528 were obtained from Prof. […]
as §2

In another assay the test system is H1975. Description: AlamarBlue cell viability assay, H1975. The format is cell-based. As to conditions: Homo sapiens, NCI-H1975, Lung. The protocol:
as §3, §2

A further assay has as its system H1299. The assay can be described thus: AlamarBlue cell viability assay, H1299. The format is cell-based. As to conditions: Homo sapiens, NCI-H1299, Lung. The protocol:
as §3, §2

For the next assay, the system named is DLD-1. The assay can be described thus: AlamarBlue cell viability assay, DLD-1. The format is cell-based. As to conditions: Homo sapiens, Colon. As to the method:
as §3, §2

In the next assay the test system is AsPC-1. Description: AlamarBlue cell viability assay, AsPC-1. Type of assay: cell-based. As to conditions: Homo sapiens, ASPC1, Pancreatic. The protocol: as §3, §2
In another assay the test system is OGK-M. Description: AlamarBlue cell viability assay, OGK-M. The format is cell-based. Particulars: Homo sapiens, Thyroid. As to the method: as §3, §2
Another assay concerns A2-528. The assay can be described thus: AlamarBlue cell viability assay, A2-528. Type of assay: cell-based. Particulars: Homo sapiens, Gastric. The protocol:
as §3, §2

The test system of assay [1] is TFF3-high expressing mammary carcinoma (MC) cell lines. Description: AlamarBlue viability and Annexin V-FITC/PI flow cytometry in mammary carcinoma cell lines (FIG. 1). Type of assay: cell-based, human. An excerpt: (A) Inhibitory concentration 50% (IC50) values for compound 43 in the MC cell lines are tabulated, using an AlamarBlue™ cell viability assay as previously described in Pandey V et al., Breast Cancer Res. 2014; 16(5):429. (B) Measured dose-dependent manner effect of compound 43 on the viability of MC cells (left-side, TFF3-high and right, TFF3-low) using AlamarBlue™ viability assay as previously described (ibid). (C) Apoptotic cell death of mammary carcinoma cell lines measured after treatment with 10 μM compound 43 using flow cytometry analysis at 24 hour as described previously in Keerthy H K et al., PloS one. 2014; 9(9):e107118. Annexin V-FITC staining is indicated on the X-axis and PI staining on the Y-axis. […] Acquisition of Annexin V and PI data were represented as percentage (%) in each quadrant. Note: CM, conditioned media; MCF10A and MCF12A, non-transformed immortalized-mammary epithelial cell line. Points are mean of triplicate experiments; bars, ±SD. Statistical significance was assessed by using an unpaired two-tailed Student's t test (P<0.05 was considered as significant) using GraphPad Prism5. Columns are mean of triplicate experiments; bars, ±SD. **P<0.001, *P<0.05.

Assay [2] has as its system TFF3-high expressing mammary carcinoma cell (MCF7, BT474, MDA-MB-361). The assay can be described thus: Cell viability in 3D Matrigel culture, AlamarBlue (FIG. 4). The format is cell-based, human. Particulars: cultured 14 days in 3D Matrigel, vs vehicle (DMSO). As to the method: Cell viability in colonies generated by MCF7, BT474 and MDA-MB-361 cell after exposure with compound 43 or vehicle (DMSO) cultured 14 days in 3D Matrigel using AlamarBlue™ viability assay as previously described in Pandey V et al., Breast Cancer Res. 2014; 16(5):429. Microscopic visualization (right side) of colonies generated by BT474 and MCF7 cells after exposure with compound 43 or vehicle (DMSO) cultured 14 days in 3D Matrigel. On days 5, 8 and 11, colonies were treated with compound 43 or DMSO. Statistical significance was assessed by using an unpaired two-tailed Student's t test (P<0.05 was considered as significant) using GraphPad Prism5.

With `Cc1cc(-c2ccc(C3C(C#N)=C(N)Oc4c3c(=O)oc3ccccc43)cc2)cnc1F` (stereo not shown) [Compound 43, 2-Amino-4-(4-(6-fluoro-5-methylpyridin-3-yl)phenyl)-5-oxo-4H,5H-pyrano[3,2-c]chromene-3-carbonitrile], the concentration for half-maximal inhibition (IC50) is 468 µM in the assay with BT20; 408 µM with MDA-MB-231; 396 µM with MDA-MB-436; 90.5 µM in the assay on RL95-2; 11.8 µM in the assay on H1975; 18.6 µM in the assay with H1299. In addition, the IC50 with DLD-1 was 4.12 µM; with AsPC-1, 4.41 µM; with OGK-M, 411 µM; in the assay with A2-528, 34.1 µM. Besides, in assay [1] (10 μM, 24 hour, Annexin V-FITC/PI flow cytometry), the apoptosis result is “stimulates apoptosis”. Further, the cell viability result in assay [1] (AlamarBlue) is listed as “suppresses cell viability”. Also, the “cell viability in Matrigel 3D culture” value in assay [2] is listed as “suppresses cell viability”.

These data come from US20200147039A1, “COMPOUNDS USEFUL IN INHIBITING HUMAN TREFOIL FACTOR 3” (NATIONAL UNIVERSITY OF SINGAPORE, priority 2017, published 2020).
